Here are results for two compounds from paper PMC11811597, “Phenomics‐Based Discovery of Novel Orthosteric Choline Kinase Inhibitors” (Angewandte Chemie (International Ed. in English), 2025).

The assay has as its target T1, FAM195A (Homo sapiens, UniProt Q9BUT9).
T1 construct: endogenous in cells; host or cells: MCF7 whole cell lysate
Put plainly: Competitive affinity-based chemoproteomics (UNC0965 matrix), MCF7 lysate. The conditions noted are these: 20 μM competitor, n=2. Type of assay: binding. The protocol: A-366 and UNC0638 were purchased from Tocris. ARIAD and V-11-07-11 were purchased from Wuxi Apptec. UNC0737 and UNC0965 were synthesised as previously described.[1] Hemicholinium-3 and pyruvate kinase/lactic dehydrogenase enzymes were purchased from Sigma Aldrich. Aqueous and organic solvents were MS-grade and acquired by Sigma Aldrich unless stated otherwise.
MDA-MB-231, MCF7 and HEK293 cells were cultured in DMEM (Gibco, #11965092) supplemented with 10% FBS. K562 were cultured in IMDM (Gibco, #12440053) supplemented with 10% FBS. HepG2 were cultured in MEM (Gibco, #11095080) supplemented with 10 % FBS. […]
cultured in McCoy’s 5A (Sigma, M8403) supplemented with 10 % FBS and 1x GlutaMAX (Gibco, #35050061). Cells were maintained at 37 °C in a humidified 5% CO2 atmosphere. Peripheral blood mononuclear cells (PBMC) were isolated from healthy blood donors by density centrifugation. […]
Cell Titer-Glo® reagent was added to each well and total luminescence readings were performed within 15 min using the PHERAstar FSX (BMG Labtech). […]
Digested samples were analysed by nano-UPLC–MS/MS using a Dionex Ultimate 3000 nano UPLC fitted with an EASY spray column (75 μm × 500 mm, 2 μm particle size, Thermo Scientific), coupled to an Orbitrap Q Exactive instrument. […]

Molecules are shown by their SMILES.

T1 sequence (Q9BUT9 whole entry): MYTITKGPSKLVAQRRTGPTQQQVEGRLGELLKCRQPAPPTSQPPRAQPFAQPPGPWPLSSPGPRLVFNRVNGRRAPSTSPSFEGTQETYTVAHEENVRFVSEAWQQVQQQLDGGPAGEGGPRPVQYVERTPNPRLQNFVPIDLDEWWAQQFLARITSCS

Turning to `COc1cc2c(NC3CCN(C(C)C)CC3)nc(C3CCCCC3)nc2cc1OCCCN1CCCC1` [UNC0638], the “FC vs DMSO (log2 competition), FAM195A” value was -1.845. The value for `COc1cc2c(N(C)C3CCN(C(C)C)CC3)nc(C3CCCCC3)nc2cc1OCCCN1CCCC1` [UNC0737] was -0.06296.
